# Test results taken from patent publication US9321790B2, “Pyrimidinone derivatives as antimalarial agents” (SANOFI, priority 2012, dated 2016).
# Columns and labels:
# [1] = tested on: Plasmodium falciparum (strain NF54); assay: Antimalarial activity test: growth of Plasmodium falciparum in infected human erythrocytes, 3H-hypoxanthine incorporation; type: cell-based; conditions: strain NF54 sensitive to chloroquine, 72 h total incubation
# Experimental: The compounds according to the invention underwent pharmacological trials to determine their inhibitory effect on the growth of Plasmodium falciparum (strain NF54 sensitive to inhibition with chloroquine) in an in vitro test using infected human erythrocytes. The growth of the parasites is measured via the incorporation of tritiated hypoxanthine compared with the incorporation in the absence of drug. The tests are performed in 96-well microplates (Falcon™ 96-well microtiter plates, ref. No. 353072) in RPMI 1640 solutions (10.44 g/l) (without hypoxanthine) with HEPES (5.94 g/l), NaHCO3 (2.1 g/l), neomycin ([…])+AlbumaxR II (5 g/l) supplemented with human erythrocytes with a final hematocrit of 1.25% and a final parasitemia of 0.15%.
# The stock solution of the compounds is prepared at 10 mg/mL in DMSO. For the test, fresh solutions at the desired concentrations are prepared in RPMI medium. For the test, 100 μl of compound are mixed with 100 μl of infected blood. For the determination of the IC50 values, the compounds are tested in twofold serial dilution.
# The plates are incubated at 37° C. under a humid atmosphere with 93% N2, 4% CO2 and 3% O2. After 48 hours, 50 μl of ^3H-hypoxanthine (=0.5 μCi) in RPMI medium are added to each well and incubation is continued for a further 24 hours. Next, the plates are washed with distilled water and the cell lyzate is transferred onto fiberglass filters. The filters are dried and the radioactivity is determined by liquid scintillation. The results in cpm are converted into percentages of inhibition. The inhibitory activity is given by the concentration that inhibits 50% of the growth of the parasite relative to a control without compound.
# [2] = target: human PI3Kα (Homo sapiens (Human), UniProt P42336); assay: Human PI3Kα activity test (luciferin/luciferase ATP consumption, KinaseGlo); type: biochemical; conditions: PI3Kα (p110α/p85α), 50 μM PIP2, 2 μM ATP, 90 minutes; read-out: IC50 Human PI3Kα
# human PI3Kα, sequence (P42336 whole entry): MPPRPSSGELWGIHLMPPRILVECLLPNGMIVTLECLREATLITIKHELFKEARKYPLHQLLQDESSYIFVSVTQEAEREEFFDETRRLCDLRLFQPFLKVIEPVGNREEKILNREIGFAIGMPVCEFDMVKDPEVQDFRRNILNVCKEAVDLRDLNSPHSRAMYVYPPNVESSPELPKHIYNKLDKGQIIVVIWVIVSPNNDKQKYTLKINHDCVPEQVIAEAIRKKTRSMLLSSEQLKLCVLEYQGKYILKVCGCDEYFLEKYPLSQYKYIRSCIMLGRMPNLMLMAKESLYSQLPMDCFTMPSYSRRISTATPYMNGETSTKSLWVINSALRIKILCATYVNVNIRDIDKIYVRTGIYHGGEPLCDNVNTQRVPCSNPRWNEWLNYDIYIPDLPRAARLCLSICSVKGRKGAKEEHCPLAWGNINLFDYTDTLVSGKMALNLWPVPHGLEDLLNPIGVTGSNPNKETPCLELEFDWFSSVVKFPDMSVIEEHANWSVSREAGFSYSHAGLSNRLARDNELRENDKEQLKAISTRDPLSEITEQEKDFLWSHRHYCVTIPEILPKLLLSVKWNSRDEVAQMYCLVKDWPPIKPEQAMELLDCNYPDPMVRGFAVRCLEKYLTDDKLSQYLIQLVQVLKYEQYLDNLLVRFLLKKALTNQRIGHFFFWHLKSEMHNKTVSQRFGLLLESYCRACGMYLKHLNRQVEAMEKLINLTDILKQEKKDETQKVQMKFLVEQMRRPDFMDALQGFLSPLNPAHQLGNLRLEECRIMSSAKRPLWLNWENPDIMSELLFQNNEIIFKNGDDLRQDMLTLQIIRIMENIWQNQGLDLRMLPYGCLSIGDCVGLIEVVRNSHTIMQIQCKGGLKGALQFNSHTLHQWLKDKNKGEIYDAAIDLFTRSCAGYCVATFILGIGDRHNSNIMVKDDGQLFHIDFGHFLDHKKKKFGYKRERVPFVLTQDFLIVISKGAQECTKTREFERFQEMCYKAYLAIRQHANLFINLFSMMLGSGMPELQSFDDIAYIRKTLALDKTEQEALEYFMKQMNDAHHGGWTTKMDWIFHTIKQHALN
# human PI3Kα, sequence (P27986 whole entry partner): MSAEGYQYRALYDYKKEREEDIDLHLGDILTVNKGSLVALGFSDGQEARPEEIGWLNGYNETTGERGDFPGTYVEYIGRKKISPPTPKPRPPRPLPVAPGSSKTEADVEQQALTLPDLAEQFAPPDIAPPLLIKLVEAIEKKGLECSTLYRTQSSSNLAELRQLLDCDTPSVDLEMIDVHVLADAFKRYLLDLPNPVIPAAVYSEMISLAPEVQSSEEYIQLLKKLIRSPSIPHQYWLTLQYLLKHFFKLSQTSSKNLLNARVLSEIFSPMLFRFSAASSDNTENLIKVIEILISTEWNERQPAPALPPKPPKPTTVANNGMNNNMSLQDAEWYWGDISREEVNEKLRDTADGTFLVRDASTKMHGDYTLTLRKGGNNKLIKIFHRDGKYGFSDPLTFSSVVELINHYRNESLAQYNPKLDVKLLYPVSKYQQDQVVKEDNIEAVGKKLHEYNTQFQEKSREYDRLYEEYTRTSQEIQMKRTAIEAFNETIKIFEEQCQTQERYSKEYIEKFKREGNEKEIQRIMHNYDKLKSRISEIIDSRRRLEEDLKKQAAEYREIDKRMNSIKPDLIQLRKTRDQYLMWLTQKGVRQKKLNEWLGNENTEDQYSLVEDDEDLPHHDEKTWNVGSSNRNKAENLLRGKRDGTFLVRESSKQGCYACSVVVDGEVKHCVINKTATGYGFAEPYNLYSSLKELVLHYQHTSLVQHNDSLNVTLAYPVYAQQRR
# Experimental: The test uses a luciferin/luciferase system to measure the concentration of ATP and its consumption during the enzymatic reaction.
# After 90 minutes, the reaction is quenched by adding 20 μl/well of KinaseGlo reagent (Promega V6713). After 10 minutes in the dark, the luminescence is read using a PHERAStar microplate reader (reading at 0.8 sec/well).
# [3] = Plasmodium falciparum, Erythrocyte
SMILES,"IC50 [1, 3] [nM]",IC50 [2] [nM],IC50 [1] [nM]
"C[C@@]1(C(F)(F)F)Cn2c(nc(N3C[C@@H]4C[C@H]3CO4)cc2=O)N1CCc1cccnc1 [Compound 13, 2-Methyl-7-(1S,4S)-2-oxa-5-azabicyclo[2.2.1]hept-5-yl-1-(2-pyrid-3-ylethyl)-2-((S)-trifluoromethyl)-2,3-dihydro-1H-imidazo[1,2-a]pyrimidin-5-one]",,5750,21
"Nc1ccc(C(=O)CN2c3nc(N4CC5CC4CO5)cc(=O)n3CC[C@H]2C(F)(F)F)cn1 (stereo partly drawn) [Compound 3, (8S)-9-[2-(6-Aminopyrid-3-yl)-2-oxoethyl]-2-oxa-5-azabicyclo[2.2.1]hept-5-yl-8-trifluoromethyl-6,7,8,9-tetrahydropyrimido[1,2-a]pyrimidin-4-one]",,7200,13
"O=C(CN1c2nc(N3C[C@@H]4C[C@H]3CO4)cc(=O)n2CC[C@H]1C(F)(F)F)c1ccc(F)cc1F [Compound 48, (8S)-9-[2-(2,4-difluorophenyl)-2-oxoethyl]-2-(1S,4S)-2-oxa-5-azabicyclo[2.2.1]hept-5-yl-8-trifluoromethyl-6,7,8,9-tetrahydropyrimido[1,2-a]pyrimidin-4-one]",27,> 10000,
"O=CN1CCC(C(=O)CN2c3nc(N4C[C@@H]5C[C@H]4CO5)cc(=O)n3CC[C@H]2C(F)(F)F)CC1 [Compound 118, 4-[2-((S)-8-(1S,4S)-2-Oxa-5-azabicyclo[2.2.1]hept-5-yl-6-oxo-2-trifluoromethyl-3,4-dihydro-2H,6H-pyrimido[1,2-a]pyrimidin-1-yl)acetyl]piperidine-1-carbaldehyde]",,> 10000,15

# The next lines start with results.
"IC50 [1, 3] [nM]",IC50 [2] [nM],SMILES,IC50 [1] [nM]
5,330,"O=c1cc(N2C[C@@H]3C[C@H]2CO3)nc2n1CC[C@@H](C(F)(F)F)N2CCc1ccc(OCCN2CCOCC2)cc1 [Compound 111, (8S)-9-{2-[4-(2-Morpholin-4-ylethoxy)phenyl]ethyl}-2-(1S,4S)-2-oxa-5-azabicyclo[2.2.1]hept-5-yl-8-trifluoromethyl-6,7,8,9-tetrahydropyrimido[1,2-a]pyrimidin-4-one]",
,> 10000,"N#Cc1cccc(C(=O)CN2c3nc(N4C[C@@H]5C[C@H]4CO5)cc(=O)n3CC[C@H]2C(F)(F)F)c1 [Compound 55, 3-[2-((S)-8-(1S,4S)-2-Oxa-5-azabicyclo[2.2.1]hept-5-yl-6-oxo-2-trifluoromethyl-3,4-dihydro-2H,6H-pyrimido[1,2-a]pyrimidin-1-yl)acetyl]benzonitrile]",28
> 200,> 10000,"CN(C)c1ccc(C(=O)CN2c3nc(N4C[C@@H]5C[C@H]4CO5)cc(=O)n3CC[C@H]2C(F)(F)F)cn1 [Compound 6, (8S)-9-[2-(6-dimethylaminopyrid-3-yl)-2-oxoethyl]-2-(1S,4S)-2-oxa-5-azabicyclo[2.2.1]hept-5-yl-8-trifluoromethyl-6,7,8,9-tetrahydropyrimido[1,2-a]pyrimidin-4-one]",
15,≥ 10000,"O=C(CN1c2nc(N3C[C@@H]4C[C@H]3CO4)cc(=O)n2CC[C@H]1C(F)(F)F)c1ccncc1 [Compound 2, (8S)-2-(1S,4S)-2-oxa-5-azabicyclo[2.2.1]hept-5-yl-9-(2-oxo-2-pyrid-4-ylethyl)-8-trifluoromethyl-6,7,8,9-tetrahydropyrimido[1,2-a]pyrimidin-4-one]",
7,180,"O=CN1CCC(CN2c3nc(N4C[C@@H]5C[C@H]4CO5)cc(=O)n3CC[C@H]2C(F)(F)F)CC1 [Compound 95, 4-((2S)-8-(1S,4S)-2-oxa-5-azabicyclo[2.2.1]hept-5-yl-6-oxo-2-trifluoromethyl-3,4-dihydro-2H,6H-pyrimido[1,2-a]pyrimidin-1-ylmethyl)piperidine-1-carbaldehyde]",
